From patent US5834459A, “Alkyl-substituted compounds having dopamine receptor affinity” (Allelix Biopharmaceuticals Inc., priority 1996, dated 1998)

Key:
[1] = molecular target: human D2 receptor (short isoform) (Homo sapiens, UniProt P14416); experiment: Receptor Binding Assay: displacement of 3H-spiperone, D2 receptor, for D2/D4 selectivity; conditions: for D2/D4 (selectivity): ratio D2/D4, GH4 C1 cells with human D2 short vs HEK 298 cells with human D4.2, 3H-spiperone
Experimental: (§1) The potency of the test compound to reduce ^3 H-spiperone binding directly correlated to its binding affinity for the receptor.
GH4 C1 (rat pituitary) cells stably transfected with the human D2 receptor (short isoform) were grown in CO2 independent media in roller bottles (1500 cm^2) for 10 days. 100 μM ZnSO4 was added to the cells (the D2 promoter being zinc inducible). After 16 hours, fresh media was added to allow the cells to recover for 24 hours. The cells were harvested using versene and then centrifuged in a Sorval centrifuge for 10 minutes, at 5000 rpm (GS3 rotor). Pellets were quickly frozen in liquid nitrogen and stored at -80° C. until used in the binding assays. When used in the assay, cells were thawed on ice for 20 minutes. […] The receptor protein concentration was determined using the Pierce BCA assay.
(§2) The tubes were vortexed and incubated at room temperature for 90 minutes. The binding reaction was stopped by filtering using a Brandell Cell Harvester. The samples were filtered under vacuum over glass fibre filters (Whatman GF/B) presoaked for 2 hours in 0.3% polyethylenimine (PEI) in 50 mM Tris buffer (pH7.4). The filters were then washed 3 times with 5 mL ice cold 50 mM Tris buffer (pH7.4). Individual filter disks were put in scintillation vials (Biovials, Bechman). Ready Protein Plus liquid scintillant (5 mL, Beckman) was added and the vials counted by liquid scintillation spectrophotometry (Beckman LSC 6500) after equilibrating for three hours at room temperature to determine total binding (BT).
This assay employed the same procedures as the non-specific binding assay for D4 with the exception that 2 μM (final conc.) of (-) sulpiride (Research Chemicals Inc.) was used in place of dopamine.
(§3) The incubation was started by the addition to 12×75 mm polypropylene tubes 500 μl (50 μg protein) membrane homogenate to a solution of 400 μl incubation buffer, 100 μl (0.25 final conc.) ^3 H-spiperone (90 Ci/mmol, Amersham, diluted in borosilicate glass vial to) and […] of test compound that was prepared from 1 mM stock dissolved in DMSO and stored at -20° C. in polypropylene cryogenic storage vials until dilution in incubation buffer in borosilicate glass vials. The tubes were vortexed and incubated at room temperature for 90 minutes at which time the binding reaction was stopped by filtering. The filters were washed and counted using the same procedure as in the total binding assay described above to give the displacement binding value (BD).
(§4) IC50 was determined from an inhibition response curve, logit-log plot of %B/BO vs concentration of test compound.
(§5) Ki was calculated by the Cheng and Prustoff transformation: […]
(§6) where [L] is the concentration of ^3 H-spiperone used in the assay and KD is the dissociation constant of ^3 H-spiperone determined independently under the same binding conditions.

[2] = molecular target: T1, human D4 receptor (D4.2 sub-type) (Homo sapiens, UniProt P21917, DEL265-296); experiment: Receptor Binding Assay: displacement of 3H-spiperone, D4 receptor; conditions: for Ki: 3H-spiperone displacement, HEK 298 cells transfected with human D4.2, read-out: Ki (D4 affinity)
T1 construct: expressed in transfected cells; cell homogenate
T1 sequence (P21917 with tags, fused parts or gaps DEL265-296): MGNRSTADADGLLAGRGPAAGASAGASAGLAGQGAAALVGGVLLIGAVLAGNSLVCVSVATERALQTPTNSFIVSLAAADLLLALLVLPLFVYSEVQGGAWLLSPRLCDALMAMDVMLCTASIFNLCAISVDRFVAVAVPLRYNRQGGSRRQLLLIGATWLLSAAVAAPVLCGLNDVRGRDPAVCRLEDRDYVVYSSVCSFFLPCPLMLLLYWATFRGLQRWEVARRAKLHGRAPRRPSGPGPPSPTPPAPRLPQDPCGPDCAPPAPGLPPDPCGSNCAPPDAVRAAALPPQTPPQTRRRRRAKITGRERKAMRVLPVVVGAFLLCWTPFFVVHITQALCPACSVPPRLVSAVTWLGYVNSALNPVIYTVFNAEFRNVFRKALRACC
Experimental: as §1
The cells were then centrifuged in a Sorval centrifuge for 10 minutes, 5000 rpm (GS3 rotor) and the pellets quickly frozen in liquid nitrogen and stored at -80° C. until used in binding assay. When used in the assay, cells were thawed on ice for 20 minutes and then 10 mL of incubation buffer (50 mM Tris, 1 mM EDTA, 4 mM MgCl2, 5 mM KCl, 1.5 mM CaCl2, 120 mM NaCl, pH7.4) was added. […] Concentration of receptor protein was determined using the Pierce BCA assay.
as §2
The tubes were vortexed and incubated at room temperature for 90 minutes at which time the binding reaction was stopped by filtering. The filters were washed and counted using the same procedure as in the total binding assay described above to give the non-specific binding value (NSB).
as §3, §4, §5, §6

[3] = molecular target: D4 receptor; conditions: background; both products approximately; cited from earlier work
[4] = test system: D2 receptor; conditions: background; both products; cited from earlier work

Chain of human D2 receptor (short isoform) (P14416 with tags, fused parts or gaps DEL242-270): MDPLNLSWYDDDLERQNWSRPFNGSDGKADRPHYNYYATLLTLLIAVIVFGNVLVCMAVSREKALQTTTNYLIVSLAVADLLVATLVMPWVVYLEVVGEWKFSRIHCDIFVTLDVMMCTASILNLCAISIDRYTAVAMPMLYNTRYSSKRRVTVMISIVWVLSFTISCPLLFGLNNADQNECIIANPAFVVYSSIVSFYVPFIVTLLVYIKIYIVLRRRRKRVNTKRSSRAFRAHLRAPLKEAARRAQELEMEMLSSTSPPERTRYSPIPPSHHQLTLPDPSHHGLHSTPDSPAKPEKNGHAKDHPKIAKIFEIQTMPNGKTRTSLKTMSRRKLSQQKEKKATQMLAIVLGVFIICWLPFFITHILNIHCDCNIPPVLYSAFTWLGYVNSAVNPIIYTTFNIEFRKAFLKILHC

Row | SMILES | Ki [2] | D2/D4 (selectivity) [1] | D4 selectivity relative to the D2 receptor (in words) [1] | D4 affinity compared with clozapine (in words) [2] | D4 selectivity compared with clozapine (in words) [1] | Ki [3] | preference for binding the D4 receptor relative to the D2 receptor [4]
1 | CCCCCCCCN1CCN(C2=Nc3ccccc3Oc3ccccc32)CC1 [11-(4-octyl-1-piperazinyl)dibenz[b,f][1,4]oxazepine] |  |  | bind to the D4 receptor selectively relative to the D2 receptor |  |  |  | 
2 | CCCCCCCN1CCN(C2=Nc3ccccc3Oc3ccccc32)CC1 [11-(4-heptyl-1-piperazinyl)dibenz[b,f][1,4]oxazepine] |  |  | bind to the D4 receptor selectively relative to the D2 receptor |  |  |  | 
3 | CN1CCN(C2=Nc3cc(Cl)ccc3Oc3ccccc32)CC1 [isoloxapine] |  |  |  |  |  | ~20 nM | about 10 fold
4 | CCCCCCCCCN1CCN(C2=Nc3ccccc3Oc3c(Cl)cccc32)CC1 [4-chloro-11-(4-nonyl-1-piperazinyl)dibenz[b,f][1,4]oxazepine] | 229 nM | 3.9 | bind to the D4 receptor selectively relative to the D2 receptor |  | better D4 selectivity than clozapine |  | 

The next lines start with results.

Row | Ki [2] | D2/D4 (selectivity) [1] | SMILES | D4 selectivity relative to the D2 receptor (in words) [1] | D4 affinity compared with clozapine (in words) [2] | D4 selectivity compared with clozapine (in words) [1] | Ki [3] | preference for binding the D4 receptor relative to the D2 receptor [4]
5 | 22 nM | 20.0 | CCCCCCN1CCN(C2=Nc3ccccc3Oc3ccccc32)CC1 [11-(4-hexyl-1-piperazinyl)dibenz[b,f][1,4]oxazepine] | bind to the D4 receptor selectively relative to the D2 receptor | better D4 affinity and selectivity than clozapine | better D4 affinity and selectivity than clozapine |  | 
6 | 32 nM | 31.8 | CCCCCCN1CCN(C2=Nc3ccccc3Oc3c(Cl)cccc32)CC1 [4-chloro-11-(4-hexyl-1-piperazinyl)dibenz[b,f][1,4]oxazepine] | bind to the D4 receptor selectively relative to the D2 receptor |  | better D4 selectivity than clozapine |  | 
7 | 18 nM | 30.0 | CCCCCCCCCN1CCN(C2=Nc3cc(Cl)ccc3Oc3ccccc32)CC1 [8-chloro-11-(4-nonyl-1-piperazinyl)dibenz[b,f][1,4]oxazepine] | bind to the D4 receptor selectively relative to the D2 receptor | better D4 affinity and selectivity than clozapine | better D4 affinity and selectivity than clozapine |  | 
8 | 109 nM | 3.9 | CCCCCCCCCN1CCN(C2=Nc3ccccc3Oc3ccccc32)CC1 [11-(4-nonyl-1-piperazinyl)dibenz[b,f][1,4]oxazepine] | bind to the D4 receptor selectively relative to the D2 receptor |  |  |  | 
